In patent publication US20200011856A1, “Method for Determining the Effectiveness of Treatment for the Prevention of Heartworm Disease” (priority 2017, published 2020):
Several values for one entry are separate records, joined by “and”; a condition that tells them apart may be missing. Equal entries are not always repeated.

Legend:
Dirofilaria immitis = assay: D. immitis L3 infection of NSG mice (FR3 Missouri strain or strain not stated), treatment, recovery and count of worms at necropsy; assay type: in vivo; settings: for % Rec, Mean / Mean % Rec: group mean
[1] = system: Dirofilaria immitis (Merial worms, UC strain); assay: D. immitis L3 infection of NSG mice with Merial worms / UC strain, treatment, recovery and count of worms; assay type: in vivo; settings: for % Rec, Mean / Mean % Rec: group mean; for Mean Survival / Survival, Mean: in vivo
[2] = Table 9, NSG mice, 50 Di L3, 1 mg/kg on Days 1, 15, and 30, recovery Days 41 to 43
[3] = Table 9, individual mouse, NSG mice, 50 Di L3, 1 mg/kg on Days 1, 15, and 30, recovery Days 41 to 43
[4] = Table 11, NSG mice, 50 Di L3, 1 mg/kg on Days 1, 15, and 30, recovery Days 41 to 42
[5] = Table 11, NSG mice, 50 Di L3, 5 mg/kg on Days 1, 15, and 30, recovery Days 41 to 42
[6] = NSG mice, 50 Di L3 Merial worms, 1 mg/kg on Days 1, 15, and 30, recovery Days 41 to 43
[7] = NSG mice, 50 Di L3 UC strain, High Dose 5 mg/kg on Days 1, 15, and 30, recovery Days 41 and 42
[8] = NSG mice, 50 Di L3 UC strain, Normal Dose 1 mg/kg on Days 1, 15, and 30, recovery Days 41 and 42

## C[C@H]1OC(=O)[C@H](CC(C)(C)C)N(C)C(=O)[C@@H](Cc2ccc(C3CCOCC3)cc2)OC(=O)[C@H](CC(C)(C)F)N(C)C(=O)[C@@H](C)OC(=O)[C@H](CC(C)(C)C)N(C)C(=O)[C@@H](Cc2ccc(C3CCOCC3)cc2)OC(=O)[C@H](CC(C)(C)F)N(C)C1=O [compound 4838]
Dirofilaria immitis; 4838 1 mg/kg days 1, 15, 30, 50 Di L3 (FR3 worms) per NSG mouse, Table 17, vs Control
  % Red: % Red: 50%
Dirofilaria immitis; 4838 1 mg/kg days 1, 15, 30, 50 Di L3 (FR3 worms) per NSG mouse, recovery Days 41 and 42, Table 17
  % Rec, Mean: 14%
Dirofilaria immitis; 4838 1 mg/kg days 1, 15, 30, 50 Di L3 (FR3 worms) per NSG mouse, recovery Days 41 and 42, Table 17, individual mice, 1 mg/kg
  % Rec: 10% (2×) and 20% and 16% (2×) and 12% (2×)
Dirofilaria immitis; 4838 2.5 mg/kg days 1, 15, 30, 50 Di L3 (FR3 worms) per NSG mouse, Table 17, vs Control
  % Red: % Red: 76%
Dirofilaria immitis; 4838 2.5 mg/kg days 1, 15, 30, 50 Di L3 (FR3 worms) per NSG mouse, recovery Days 41 and 42, Table 17
  % Rec, Mean: 6%
Dirofilaria immitis; 4838 2.5 mg/kg days 1, 15, 30, 50 Di L3 (FR3 worms) per NSG mouse, recovery Days 41 and 42, Table 17, individual mice, 2.5 mg/kg
  % Rec: 2% and 12% and 4% (3×) and 10% and 8%
Dirofilaria immitis; 4838 5 mg/kg days 1, 15, 30, 50 Di L3 (FR3 worms) per NSG mouse, Table 17, vs Control
  % Red: % Red: 93%
Dirofilaria immitis; 4838 5 mg/kg days 1, 15, 30, 50 Di L3 (FR3 worms) per NSG mouse, recovery Days 41 and 42, Table 17
  % Rec, Mean: 2%
Dirofilaria immitis; 4838 5 mg/kg days 1, 15, 30, 50 Di L3 (FR3 worms) per NSG mouse, recovery Days 41 and 42, Table 17, individual mice, 5 mg/kg
  % Rec: 0% (4×) and 4% (3×)
Dirofilaria immitis; 4838 10 mg/kg Days 1, 15, 30, 50 Di L3 per NSG mouse, Table 14, vs Control
  % Red: 100%
Dirofilaria immitis; 4838 10 mg/kg Days 1, 15, 30, 50 Di L3 per NSG mouse, recovery Days 41 to 42, Table 14
  % Rec, Mean: 0%
Dirofilaria immitis; 4838 10 mg/kg Days 1, 15, 30, 50 Di L3 per NSG mouse, recovery Days 41 to 42, Table 14, individual mice
  % Rec: 0%
Dirofilaria immitis; 4838 10 mg/kg days 1, 15, 30, 50 Di L3 (FR3 worms) per NSG mouse, Table 17, vs Control
  % Red: % Red: 99%
Dirofilaria immitis; 4838 10 mg/kg days 1, 15, 30, 50 Di L3 (FR3 worms) per NSG mouse, recovery Days 41 and 42, Table 17
  % Rec, Mean: 0.29%
Dirofilaria immitis; 4838 10 mg/kg days 1, 15, 30, 50 Di L3 (FR3 worms) per NSG mouse, recovery Days 41 and 42, Table 17, individual mice, 10 mg/kg
  % Rec: 0% (6×) and 2%
Dirofilaria immitis; 4838 .5 mg/kg days 1, 15, 30, 50 Di L3 (FR3 worms) per NSG mouse, Table 17, vs Control
  % Red: % Red: 36%
Dirofilaria immitis; 4838 .5 mg/kg days 1, 15, 30, 50 Di L3 (FR3 worms) per NSG mouse, recovery Days 41 and 42, Table 17
  % Rec, Mean: 18%
Dirofilaria immitis; 4838 .5 mg/kg days 1, 15, 30, 50 Di L3 (FR3 worms) per NSG mouse, recovery Days 41 and 42, Table 17, individual mice
  % Rec: 22% and 8% (2×) and 34% and 16% and 12% and 28%
Dirofilaria immitis; [2]
  % Red: 24%
  Mean % Rec: 25%
Dirofilaria immitis; [3]
  % Rec: 26% and 30% (2×) and 12% and 14% and 32%
Dirofilaria immitis; [4]
  % Red: 21%
  Mean % Rec: 19%
Dirofilaria immitis; [5]
  % Red: 92%
  Mean % Rec: 2%
Dirofilaria immitis; Table 11, individual mouse, NSG mice, 50 Di L3, 1 mg/kg on Days 1, 15, and 30, recovery Days 41 to 42
  % Rec: 20% and 12% and 8% and 30% and 28% and 18%
Dirofilaria immitis; Table 11, individual mouse, NSG mice, 50 Di L3, 5 mg/kg on Days 1, 15, and 30, recovery Days 41 to 42
  % Rec: 4% (2×) and 2% (3×) and 0%
Dirofilaria immitis; in vivo
  Survival, Mean: 9
Dirofilaria immitis; in vivo, 1 mg/kg
  Survival: 5 and 10 and 8 and 6
  Survival, Mean: 7
Dirofilaria immitis; in vivo, 2.5 mg/kg
  Survival, Mean: 3
Dirofilaria immitis; in vivo, 5 mg/kg
  Survival, Mean: 1
Dirofilaria immitis; in vivo, 10 mg/kg
  Survival, Mean: 0
[1]; 4838 1 mg/kg Days 1, 15, 30, 50 Di L3 (UC Strain) per NSG mouse, recovery Days 41 to 43
  % Rec, Mean: 9%
[1]; 4838 1 mg/kg Days 1, 15, 30, 50 Di L3 (UC Strain) per NSG mouse, recovery Days 41 to 43, individual mice, 1 mg/kg
  % Rec: 10% and 14% and 8% and 20% and 6% (2×) and 2%
[1]; 4838 1 mg/kg Days 1, 15, 30, 50 Di L3 (UC Strain) per NSG mouse, vs Control
  % Red: 75%
[1]; 4838 5 mg/kg Days 1, 15, 30, 50 Di L3 (UC Strain) per NSG mouse, recovery Days 41 to 43
  % Rec, Mean: 2%
[1]; 4838 5 mg/kg Days 1, 15, 30, 50 Di L3 (UC Strain) per NSG mouse, recovery Days 41 to 43, individual mice, 5 mg/kg
  % Rec: 2% (4×) and 0% and 4% (2×)
[1]; 4838 5 mg/kg Days 1, 15, 30, 50 Di L3 (UC Strain) per NSG mouse, vs Control
  % Red: 94%
[1]; [6]
  % Red: 38%
  Mean % Rec: 21%
[1]; [7]
  % Red: 92%
  Mean % Rec: 3%
[1]; [8]
  % Red: 58%
  Mean % Rec: 15%
[1]; 1 mg/kg
  Mean Survival: 10 and 8
  Survival, Mean: 5
[1]; 5 mg/kg
  Mean Survival: 1
  Survival, Mean: 1
[1]; individual mouse, NSG mice, 50 Di L3 Merial worms, 1 mg/kg on Days 1, 15, and 30, recovery Days 41 to 43, 1 mg/kg
  % Rec: 20% (3×) and 12% and 24% and 16% (2×) and 36%
[1]; individual mouse, NSG mice, 50 Di L3 UC strain, High Dose 5 mg/kg on Days 1, 15, and 30, recovery Days 41 and 42, 5 mg/kg
  % Rec: 4% (4×) and 0% and 2% (2×)
[1]; individual mouse, NSG mice, 50 Di L3 UC strain, Normal Dose 1 mg/kg on Days 1, 15, and 30, recovery Days 41 and 42, 1 mg/kg
  % Rec: 14% (3×) and 16% (3×) and 18%

## COC(=O)Nc1nc2ccc(OS(=O)(=O)c3ccc(F)cc3)cc2[nH]1 [compound 8914, luxabendazole]
Dirofilaria immitis; [2]
  % Red: 0%
  Mean % Rec: 33%
Dirofilaria immitis; [3]
  % Rec: 24% and 32% and 28% and 48%
Dirofilaria immitis; in vivo
  Mean Survival: 17
  Survival: 12 and 16 and 14 and 24
